The values that follow come from patent publication US8722729B2, “Unsaturated fatty acid monoesters and diesters on ascorbic acid and cosmetic uses thereof” (Pierre Fabre Dermo-Cosmetique, priority 2009, dated 2014).

The target in experiment [1] is T1, hyaluronidase of bovine origin (BTH, Bovine Testis hyaluronidase) (Bos taurus, UniProt Q2YDK3).
T1 sequence (Q2YDK3 1-553): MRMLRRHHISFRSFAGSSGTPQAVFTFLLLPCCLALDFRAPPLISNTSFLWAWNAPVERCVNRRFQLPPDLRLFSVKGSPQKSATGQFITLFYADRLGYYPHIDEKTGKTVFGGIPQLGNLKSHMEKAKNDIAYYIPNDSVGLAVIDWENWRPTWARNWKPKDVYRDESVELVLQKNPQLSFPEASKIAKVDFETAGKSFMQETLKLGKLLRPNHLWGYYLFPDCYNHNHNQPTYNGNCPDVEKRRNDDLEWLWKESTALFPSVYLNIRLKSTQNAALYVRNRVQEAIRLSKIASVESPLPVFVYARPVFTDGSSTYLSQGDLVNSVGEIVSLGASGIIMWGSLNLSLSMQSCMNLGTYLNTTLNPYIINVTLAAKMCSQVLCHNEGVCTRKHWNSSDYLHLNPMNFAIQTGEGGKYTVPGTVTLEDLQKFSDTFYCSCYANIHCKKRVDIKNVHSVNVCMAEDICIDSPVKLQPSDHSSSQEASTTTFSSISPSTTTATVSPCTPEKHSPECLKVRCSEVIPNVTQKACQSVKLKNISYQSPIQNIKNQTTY
Briefly: Assay of hyaluronidase activity (residual HA, HA-ELISA). Format: biochemical. As for the experimental part:
Hyaluronidase activity is measured by the assay of residual hyaluronic acid (HA). The substrate is fixed to a carrier then placed in the presence of an enzyme and a quantity of compound to be tested. The residual HA i.e. the non-hydrolyzed HA is assayed using a HA-Elisa detection system: Hyaluronan enzyme-linked immunosorbent assay (Echelon Biosciences®).
0.5 units of hyaluronidase of bovine origin (BTH, Bovine Testis hyaluronidase) were pre-incubated at 37° C. with the compound to be tested. This mixture was deposited on the HA fixed to the surface of a microplate well. The enzymatic reaction took place at pH 7.2n at 37° C. Washing was followed by a recognition step of residual HA by hyaluronectin (NH). The quantity of bonded NH was measured by ELISA using an anti-NH antibody conjugated with alkaline phosphatase. The p-nitrophenyl phosphate disodium salt (pnNpp) substrate of the phosphatase allows spectrometric detection at 405 nm. (Delpech B et al., Analytical Biochemistry 149, 555(565 (1985); Robert Stern et al. Analytical Biochemistry 251, 263-269 (1997)). OD intensity was correlated with the quantity of residual HA. The quantity of residual HA is directly linked to enzymatic activity. In the presence of an inhibitor, the larger the quantity of residual HA the more the sample is inhibiting. A percentage inhibition of hyaluronidase will be expressed.
Therefore the net enzymatic activities were calculated which represent the difference in mean gross activity without enzyme and the gross activity of the enzyme with or without the compound to be tested.
The percentage enzymatic inhibition related to the compound to be tested was calculated as follows: % inhibition=(Maximum net enzymatic activity)−Net enzymatic activity in the presence of the compound to be tested)/Maximum net enzymatic activity.
where the maximum net enzymatic activity represents the mean net enzymatic activity of 0.5 U.
(In general: An ELISA detects its analyte on a solid surface through an enzyme-linked reagent.)

Another experiment concerns IL-8. Nature of the experiment: Gene expression of IL8 in human dermal fibroblasts treated with H2O2 (real-time PCR). It counts as cell-based. The conditions noted are these: for RQ (relative quantity of mRNA) IL-8 / % Inhibition of the level of mRNA expression IL-8: 3 μM; for RQ (relative quantity of mRNA) IL-8: senescent fibroblasts stimulated with H2O2, non-treated control = 1; for % Inhibition of the level of mRNA expression IL-8: vs H2O2 alone. As for the experimental part:
To evidence the activity of the compounds of general formula (I) against skin ageing and against inflammation, the effect of these compounds was measured on the gene expression of MMP-1, MMP-3 and IL8 in human dermal fibroblasts treated with H2O2, thereby mimicking the process of cellular senescence. The effect of these compounds of general formula (I) was also measured on the synthesis of hyaluronic acid and on hyaluronidase activity. The stimulation of the synthesis of hyaluronic acid also allows skin hydration to be improved and/or restored (Bissett D L. J. Cosmet. Dermatol. 2006 Dec. 5(4): 309-15. Glucosamine: an ingredient with skin and other benefits).
Human dermal fibroblasts (isolated from discarded operative skin) were cultured in DMEM culture medium+10% FCS. The cells were pre-treated with vitamin C and the compound to be tested for 16 h at 37° C. and then stimulated with H2O2. The cells were then replaced in DMEM with vitamin C and dioctadeca-9,12-dienoate of (9Z,9′Z,12Z,12′Z)-2-(2,2-dimethyl-1,3-dioxolan-4-yl)-5-oxo-2,5-dihydrofuran-3,4-diyl. 72 hours after ending of stress, the fibroblasts entered into senescence: the senescent fibroblasts no longer proliferate but remain metabolically active (Hayflick, J. Invest. Dermatol., 73; 8-14, 1979). The cells were then lysed with the lysis buffer of the RNeasy® kit (QIAGEN).
The extracted RNAs were converted to complementary DNA following the indications of the Quantitect Reverse Transcription kit by Qiagen. Real-time PCR analyses were conducted using an iQ cycler fluorescence thermocycler (BIO-RAD).
The level of expression of the mRNAs coding for MMP-1, MMP-3, IL8 was analyzed using the real-time PCR technique. To normalize the level of expression of the gene of interest, the analysis strategy developed by Vandesompela et al., Genome Biol. 3: RESEARCH0034 (2002) was chosen. […] In our model, the three tested reference genes were the following: β-actin (Human β-actin), GAPDH (Human glyceraldehyde-3-phosphate dehydrogenase) and YWHAZ (Tyrosine-3-monooxygenase, tryptopgan-5-monooxygenase activation protein zeta polypeptide).
The first step normalizes the Ct values obtained for the gene of interest in relation to the Ct values obtained for the reference gene, for each experimental condition.
The following was therefore calculated: ΔCt=Ctgene of interest−Ctreference gene
The second step of the calculation determines the variation in the number of copies of the gene of interest during treatment. To do so ΔΔCt is calculated: ΔΔCt=ΔCtnon-treated NHF−ΔCttreated NHF
For the non-treated control, this QR is therefore equal to 1. It is then possible to calculate an induction or inhibition factor of the gene of interest compared with this control.
Statistical analysis was performed using a test called “one-way ANOVA”. Variance analysis using the Dunnett test then allows the comparing, for each of the analyzed genes, of the ΔCt values of normal adult fibroblasts with the compounds in the presence of H2O2 in both cases. This test then gives the “p value” characterizing the significance of the results obtained for both conditions The degree of significance was established as follows: • significant for p<0.05(*) • very significant for p<0.005(**) • highly significant for p<0.001(***) • non-significant for p>0.05. […]
It is also possible to calculate percentage inhibition of the level of expression of the different mRNAs by the active ingredients to be evaluated, using the formula: […]
(In general: In qPCR the cycle at which signal appears reflects the starting amount.)

Where [2] appears, read: 0.5 U BTH, read-out: Enzymatic inhibition (mean as a percentage).

Entries after “also recorded” stand apart in the source; their conditions may differ. Marks after values point to notes of the source that are not given here.

Regarding `O=C1O[C@H]([C@@H](O)CO)C(O)=C1O` [Ascorbic acid, ascorbic acid], the “Effect on hyaluronidase” value in experiment [1] is “no effect”. In experiment [1] (setting [2]), the inhibition at 100 µM worked out at 1% and the inhibition at 500 µM was determined as 4%. Besides, in the experiment with IL-8, the “RQ (relative quantity of mRNA) IL-8” value turned out to be 1.2 and the “% Inhibition of the level of mRNA expression IL-8” value is listed as 92*** %.

Regarding `CCCCC/C=C\C/C=C\CCCCCCCC(=O)OC1=C(OC(=O)CCCCCCC/C=C\C/C=C\CCCCC)C(C2COC(C)(C)O2)OC1=O` (centres unmarked) [Molecule 1, diactodeca-9,12-dienoate of (9Z,9′Z,12Z,12′Z)-2-(2,2-dimethyl-1,3-dioxolan-4-yl)-5-oxo-2,5-dihydrofuran-3,4-diyl], in experiment [1], the “Effect on hyaluronidase” value is recorded as “strongly inhibit hyaluronidase; also recorded: equivalent to or more active than ascorbyl palmitate”. For the same molecule, the inhibition at 5 µM in experiment [1] (5 μM, 0.5 U BTH, read-out: Enzymatic inhibition (mean as a percentage)) was 14%. The inhibition at 10 µM in experiment [1] (10 μM, 0.5 U BTH, read-out: Enzymatic inhibition (mean as a percentage)) is 21%. The inhibition at 20 µM in experiment [1] (20 μM, 0.5 U BTH, read-out: Enzymatic inhibition (mean as a percentage)) worked out at 44%. In addition, in experiment [1] (25 μM, 0.5 U BTH, read-out: Enzymatic inhibition (mean as a percentage)), the inhibition at 25 µM was found to be 46%. For the same molecule, in experiment [1] (30 μM, 0.5 U BTH, read-out: Enzymatic inhibition (mean as a percentage)), the inhibition at 30 µM was determined as 66%. Moreover, the inhibition at 40 µM in experiment [1] (40 μM, 0.5 U BTH, read-out: Enzymatic inhibition (mean as a percentage)) was 86%. Also, the inhibition at 50 µM in experiment [1] (50 μM, 0.5 U BTH, read-out: Enzymatic inhibition (mean as a percentage)) was 76%. In experiment [1] (setting [2]), the inhibition at 100 µM was 113% and the inhibition at 500 µM was determined as 122%. In addition, in experiment [1] (250 μM, 0.5 U BTH, read-out: Enzymatic inhibition (mean as a percentage)), the inhibition at 250 µM is 119%. Further, in experiment [1] (in the region of), the IC50 lay within 25 to 30 µM. In the experiment with IL-8, the “Inhibition of IL-8 expression compared with ascorbic acid” value was “more substantially inhibits the expression of MMP1, MMP3 and IL-8 than ascorbic acid”; the “RQ (relative quantity of mRNA) IL-8” value amounted to 0.9; the “% Inhibition of the level of mRNA expression IL-8” value is recorded as 102*** %.

As a reminder, the inhibition is the relative decrease from the control value, in per cent. What is called IC50 is the concentration at which inhibition is half-maximal.
